# Results from PubChem BioAssay (NCI).
#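 Grown in 96-well plates, cells were treated for 48 hours with each compound at five concentrations. Insufficient inhibition: endpoint recorded as highest concentration tested. Definition used: TGI = concentration required for complete inhibition of growth.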
# Key:
# Assay in all cases: NCI-60 cell line screen, 48 h
# HOP-62 NSCLC = test system: HOP-62 NSCLC
# A549 NSCLC = test system: A549 NSCLC
# SK-MEL-28 melanoma = test system: SK-MEL-28 melanoma
# U251 CNS = test system: U251 CNS
# OVCAR-8 ovarian = test system: OVCAR-8 ovarian
# MDA-MB-435 = test system: MDA-MB-435
# RPMI-8226 leukemia = test system: RPMI-8226 leukemia
# EKVX NSCLC = test system: EKVX NSCLC
# NCI-H460 lung = test system: NCI-H460 lung
# SK-OV-3 ovarian = test system: SK-OV-3 ovarian
# MCF7 breast = test system: MCF7 breast
# COLO 205 colon = test system: COLO 205 colon
# UACC-62 melanoma = test system: UACC-62 melanoma
# IGROV1 ovarian = test system: IGROV1 ovarian
# HCT-116 colon = test system: HCT-116 colon
# CAKI-1 renal = test system: CAKI-1 renal
# MDA-MB-231 breast = test system: MDA-MB-231 breast
# TK-10 renal = test system: TK-10 renal
# 786-0 renal = test system: 786-0 renal
# MALME-3M melanoma = test system: MALME-3M melanoma
# M14 melanoma = test system: M14 melanoma
# NCI/ADR-RES ovarian = test system: NCI/ADR-RES ovarian
# MDA-N = test system: MDA-N
# OVCAR-3 ovarian = test system: OVCAR-3 ovarian
# K-562 leukemia = test system: K-562 leukemia
# HS 578T breast = test system: HS 578T breast
# OVCAR-4 ovarian = test system: OVCAR-4 ovarian
# SF-539 CNS = test system: SF-539 CNS
# SW-620 colon = test system: SW-620 colon
# UO-31 renal = test system: UO-31 renal
# SK-MEL-5 melanoma = test system: SK-MEL-5 melanoma
# BT-549 breast = test system: BT-549 breast
# OVCAR-5 ovarian = test system: OVCAR-5 ovarian
# HOP-92 NSCLC = test system: HOP-92 NSCLC
# T-47D breast = test system: T-47D breast
# A498 renal = test system: A498 renal
# SF-268 CNS = test system: SF-268 CNS
# NCI-H522 lung = test system: NCI-H522 lung
# CCRF-CEM leukemia = test system: CCRF-CEM leukemia
# SN12C renal = test system: SN12C renal
# HT29 colon = test system: HT29 colon
# SK-MEL-2 melanoma = test system: SK-MEL-2 melanoma
# ACHN renal = test system: ACHN renal
# SF-295 CNS = test system: SF-295 CNS
# NCI-H23 lung = test system: NCI-H23 lung
# KM12 colon = test system: KM12 colon
# UACC-257 melanoma = test system: UACC-257 melanoma
# SNB-19 CNS = test system: SNB-19 CNS
# HCT-15 colon = test system: HCT-15 colon
# DU-145 prostate = test system: DU-145 prostate
# LOX IMVI melanoma = test system: LOX IMVI melanoma
# PC-3 prostate = test system: PC-3 prostate
# SR leukemia = test system: SR leukemia
# MOLT-4 leukemia = test system: MOLT-4 leukemia
# SNB-75 CNS = test system: SNB-75 CNS
# RXF 393 renal = test system: RXF 393 renal
# NCI-H226 lung = test system: NCI-H226 lung
# HL-60(TB) leukemia = test system: HL-60(TB) leukemia
# HCC-2998 colon = test system: HCC-2998 colon
smiles,measurement,setting,value
COC1CC(=O)C2C(=O)N(c3ccccc3)C(=O)C23C(C(=O)c2ccccc2)=C(C)NC13O (stereo unspecified),TGI,HOP-62 NSCLC,41.9 µM
same,TGI,A549 NSCLC,> 100 µM
same,TGI,SK-MEL-28 melanoma,23.6 µM
same,TGI,U251 CNS,35.5 µM
same,TGI,OVCAR-8 ovarian,> 100 µM
same,TGI,MDA-MB-435,40.9 µM
same,TGI,RPMI-8226 leukemia,21.3 µM
same,TGI,EKVX NSCLC,59.9 µM
same,TGI,NCI-H460 lung,45.4 µM
same,TGI,SK-OV-3 ovarian,54 µM
same,TGI,MCF7 breast,16.7 µM
same,TGI,COLO 205 colon,25.1 µM
same,TGI,UACC-62 melanoma,31.3 µM
same,TGI,IGROV1 ovarian,27.5 µM
same,TGI,HCT-116 colon,22.6 µM
same,TGI,CAKI-1 renal,22.1 µM
same,TGI,MDA-MB-231 breast,40 µM
same,TGI,TK-10 renal,20.2 µM
same,TGI,786-0 renal,5.38 µM
same,TGI,MALME-3M melanoma,9.96 µM
same,TGI,M14 melanoma,35.5 µM
same,TGI,NCI/ADR-RES ovarian,50.9 µM
same,TGI,MDA-N,72.2 µM
same,TGI,OVCAR-3 ovarian,8.12 µM
same,TGI,K-562 leukemia,0.21 µM
same,TGI,HS 578T breast,57.7 µM
same,TGI,OVCAR-4 ovarian,16.6 µM
same,TGI,SF-539 CNS,21.8 µM
same,TGI,SW-620 colon,23 µM
same,TGI,UO-31 renal,40.9 µM
same,TGI,SK-MEL-5 melanoma,37.4 µM
same,TGI,BT-549 breast,> 100 µM
same,TGI,OVCAR-5 ovarian,54.5 µM
same,TGI,HOP-92 NSCLC,25.2 µM
same,TGI,T-47D breast,14.1 µM
same,TGI,A498 renal,47.7 µM
same,TGI,SF-268 CNS,22.6 µM
same,TGI,NCI-H522 lung,6.3 µM
same,TGI,CCRF-CEM leukemia,28.9 µM
same,TGI,SN12C renal,37.1 µM
same,TGI,HT29 colon,34.2 µM
same,TGI,SK-MEL-2 melanoma,33.6 µM
same,TGI,ACHN renal,37.5 µM
same,TGI,SF-295 CNS,> 100 µM
same,TGI,NCI-H23 lung,46.3 µM
same,TGI,KM12 colon,35.6 µM
same,TGI,UACC-257 melanoma,56.2 µM
same,TGI,SNB-19 CNS,51.1 µM
same,TGI,HCT-15 colon,23.4 µM
same,TGI,DU-145 prostate,27.8 µM
same,TGI,LOX IMVI melanoma,28.9 µM
same,TGI,PC-3 prostate,34.5 µM
Cc1cc(C)c(-n2c(C)c(C)c(C#N)c2N)c(C)c1,TGI,HOP-62 NSCLC,> 100 µM
same,TGI,A549 NSCLC,> 100 µM
same,TGI,SK-MEL-28 melanoma,> 100 µM
same,TGI,U251 CNS,49.7 µM
same,TGI,OVCAR-8 ovarian,> 100 µM
same,TGI,MDA-MB-435,> 100 µM
same,TGI,RPMI-8226 leukemia,54.6 µM
same,TGI,EKVX NSCLC,87.6 µM
same,TGI,SR leukemia,38.4 µM
same,TGI,NCI-H460 lung,78.6 µM
same,TGI,SK-OV-3 ovarian,> 100 µM
same,TGI,COLO 205 colon,38.9 µM
same,TGI,IGROV1 ovarian,> 100 µM
same,TGI,HCT-116 colon,48.9 µM
same,TGI,CAKI-1 renal,> 100 µM
same,TGI,MDA-MB-231 breast,> 100 µM
same,TGI,TK-10 renal,> 100 µM
same,TGI,786-0 renal,> 100 µM
same,TGI,MALME-3M melanoma,87.8 µM
same,TGI,M14 melanoma,> 100 µM
same,TGI,NCI/ADR-RES ovarian,> 100 µM
same,TGI,MDA-N,> 100 µM
same,TGI,OVCAR-3 ovarian,> 100 µM
same,TGI,K-562 leukemia,78.5 µM
same,TGI,HS 578T breast,> 100 µM
same,TGI,OVCAR-4 ovarian,> 100 µM
same,TGI,SF-539 CNS,69.8 µM
same,TGI,SW-620 colon,> 100 µM
same,TGI,MOLT-4 leukemia,68.5 µM
same,TGI,UO-31 renal,> 100 µM
same,TGI,SK-MEL-5 melanoma,37.2 µM
same,TGI,BT-549 breast,> 100 µM
same,TGI,OVCAR-5 ovarian,> 100 µM
same,TGI,HOP-92 NSCLC,74.4 µM
same,TGI,T-47D breast,> 100 µM
same,TGI,SNB-75 CNS,> 100 µM
same,TGI,A498 renal,97.1 µM
same,TGI,RXF 393 renal,94.8 µM
same,TGI,NCI-H226 lung,> 100 µM
same,TGI,HL-60(TB) leukemia,37 µM
same,TGI,SF-268 CNS,> 100 µM
same,TGI,NCI-H522 lung,57.4 µM
same,TGI,CCRF-CEM leukemia,45.5 µM
same,TGI,SN12C renal,> 100 µM
same,TGI,HT29 colon,> 100 µM
same,TGI,SK-MEL-2 melanoma,51.7 µM
same,TGI,ACHN renal,78.9 µM
same,TGI,SF-295 CNS,> 100 µM
same,TGI,NCI-H23 lung,> 100 µM
same,TGI,KM12 colon,> 100 µM
same,TGI,UACC-257 melanoma,60.8 µM
same,TGI,SNB-19 CNS,> 100 µM
same,TGI,HCT-15 colon,> 100 µM
same,TGI,DU-145 prostate,> 100 µM
same,TGI,LOX IMVI melanoma,40.8 µM
same,TGI,PC-3 prostate,89 µM
Cc1cc2nn(C3CCCCO3)nc2cc1C (stereo unspecified),TGI,HOP-62 NSCLC,> 100 µM
same,TGI,A549 NSCLC,> 100 µM
same,TGI,U251 CNS,> 100 µM
same,TGI,OVCAR-8 ovarian,> 100 µM
same,TGI,MDA-MB-435,> 100 µM
same,TGI,EKVX NSCLC,> 100 µM
same,TGI,SR leukemia,> 100 µM
same,TGI,NCI-H460 lung,> 100 µM
same,TGI,SK-OV-3 ovarian,> 100 µM
same,TGI,MCF7 breast,> 100 µM
same,TGI,COLO 205 colon,> 100 µM
same,TGI,UACC-62 melanoma,> 100 µM
same,TGI,IGROV1 ovarian,> 100 µM
same,TGI,HCT-116 colon,> 100 µM
same,TGI,CAKI-1 renal,> 100 µM
same,TGI,MDA-MB-231 breast,> 100 µM
same,TGI,TK-10 renal,> 100 µM
same,TGI,786-0 renal,> 100 µM
same,TGI,MALME-3M melanoma,> 100 µM
same,TGI,M14 melanoma,> 100 µM
same,TGI,NCI/ADR-RES ovarian,> 100 µM
same,TGI,MDA-N,> 100 µM
same,TGI,OVCAR-3 ovarian,> 100 µM
same,TGI,K-562 leukemia,> 100 µM
same,TGI,HS 578T breast,> 100 µM
same,TGI,OVCAR-4 ovarian,> 100 µM
same,TGI,SF-539 CNS,> 100 µM
same,TGI,MOLT-4 leukemia,> 100 µM
same,TGI,UO-31 renal,> 100 µM
same,TGI,SK-MEL-5 melanoma,> 100 µM
same,TGI,BT-549 breast,> 100 µM
same,TGI,OVCAR-5 ovarian,> 100 µM
same,TGI,T-47D breast,> 100 µM
same,TGI,SNB-75 CNS,> 100 µM
same,TGI,A498 renal,> 100 µM
same,TGI,HCC-2998 colon,> 100 µM
same,TGI,RXF 393 renal,> 100 µM
same,TGI,NCI-H226 lung,> 100 µM
same,TGI,SF-268 CNS,> 100 µM
same,TGI,NCI-H522 lung,> 100 µM
same,TGI,CCRF-CEM leukemia,> 100 µM
same,TGI,SN12C renal,> 100 µM
same,TGI,HT29 colon,> 100 µM
same,TGI,SK-MEL-2 melanoma,> 100 µM
same,TGI,ACHN renal,> 100 µM
same,TGI,SF-295 CNS,> 100 µM
same,TGI,NCI-H23 lung,> 100 µM
same,TGI,KM12 colon,> 100 µM
same,TGI,UACC-257 melanoma,> 100 µM
same,TGI,SNB-19 CNS,> 100 µM
same,TGI,HCT-15 colon,> 100 µM
same,TGI,DU-145 prostate,> 100 µM
same,TGI,PC-3 prostate,> 100 µM
